Measurements published in US12070458B2, “Therapeutic agent composition and method of use, for treatment of mild congnitive impairment, depression, and psychological disorders” (priority 2018, dated 2024).
Residues, ends and D or L forms follow the SMILES beside them.

Experiments:
[1] = system: BrdU positive cells in sub ventricular zone and dentate gyrus; experiment: Neurogenesis by BrdU co-administration (sub ventricular zone, dentate gyrus); type: in vivo, Wistar rats; settings: 10 mg/kg i.p. in 0.1% RSA twice daily for 7 days, compared to sham injected
Protocol: Male Wistar rats weighing about 250-270 g (not newborn) were used. All animal experiments were conducted in agreement with national and international guidelines. Care was taken to minimize suffering for the animals. Animals were allowed to acclimatize for 1 week before start of the studies. Animals were housed under standardized conditions with normal tight-dark periods and in groups of five animals per cage. Animals had access to food and water ad libitum during the studies.
Three neurogenesis modulating agents, cPG, c(PG)3 and cGMeP were separately administered intraperitoneally to Male Wistar rats (N=10) at 10 mg/kg in Rat Serum Albumin (RSA). The negative control (n=12), the vehicle group was injected with saline (in 0.1% RSA). Bromodeoxyuridine (Brd1J; 50 mg/kg) was co-administrated together with the compounds. The intraperitoneally injections were given with a 12 hour interval for 7 days. Animals were perfused on day 8. The rats were kept at 12 hours light/dark regime. In perfusion, animals were perfused transcranially with 50 ml of ice cold phosphate buffered saline (PBS) and then 100 ml of 4% paraformaldehyde in PBS. Brains were fixed after removal in 4% paraformaldehyde in PBS for 24 hours at 4° C. at least 3 days before sectioning. The procedures of transcranial infusion consist the following steps: […]

[2] = system: damaged nerve tissue (crushed spinal cord); experiment: Regeneration of damaged nerve tissue after crushing the spinal cord; type: in vivo, Wistar rats; settings: 10 mM in saline, 0.75 ml four times a day at the site of injury for 14 days, versus saline
Protocol: Postnatal day 4 Wistar 10 rats were used for the study. The rats were divided in 2 groups: one group of 5 animals treated with drug solution, and the other group of animals treated with 0.9% sodium chloride (saline) solution. A drug solution containing cPG (from Bachem, 10 mM solution prepared in 0.9% sodium chloride (saline) solution) was administered four times a day in volumes of 0.75 ml to thoroughly flood the site of injury.
Two days after crushing the spinal cord, the dura of a rat was opened and a polyethylene tube was sutured to the vertebral spines and adjacent soft tissues so that the opening in one end lay directly over the injured part of the spinal cord. The tubing was brought through a subcutaneous tunnel so that its other end emerged at the base of the skull. A syringe adapter was attached to the external opening for injecting the drugs. All experiments were on a double-blind basis on 2 groups: one group of 5 animals treated with drug solution of 10 mM in saline solution, and the other group of 5 animals treated with 0.9% sodium chloride (saline) solution. Treatment of every animal was continued for 14 days, after which the animals were killed and histological sections prepared.
Postnatal day 4 Wistar 10 rats were used for the study. […]

[3] = system: extracellular levels of serotonin (5-HT), noradrenaline, dopamine, acetylcholine and histamine; experiment: Extracellular neurotransmitter levels in rat prefrontal cortex and hippocampus; settings: in vivo

| Structure (SMILES) | number of newborn cells (BrdU positive) in sub ventricular zone and dentate gyrus [1] | nerve growth into the lesion site (histology) [2] | extracellular levels of serotonin (5-HT), noradrenaline, dopamine, acetylcholine and histamine [3] |
| --- | --- | --- | --- |
| O=C1NCC(=O)N2CCC[C@H]2C(=O)NCC(=O)N2CCC[C@H]2C(=O)NCC(=O)N2CCCC12 (stereo partly drawn) [c(PG)3, cyclic (glycyl-L-prolylglycyl-L-prolylglycyl-L-prolyl)] (HELM PEPTIDE1{G.P.G.P.G.[O=C(C1CCCN1[*:1])[*:2]]}$PEPTIDE1,PEPTIDE1,1:R1-6:R2$$$V2.0) | significant increase | prolific nerve growth |  |
| O=C1NCC(=O)N2CCC[C@@H]12 [cPG, cyclic Prolyl Glycine] | significant increase | most prolific nerve growth | increases |
